Test results taken from patent US9695155B2, “Herbicidal substituted pyrimidinyloxy benzene compounds” (E. I. DU PONT DE NEMOURS AND COMPANY, priority 2013, dated 2017).

Columns and labels:
[1] = system: morningglory; assay: Test A postemergence; type: in vivo, Ipomoea spp.; conditions: 0 to 100 scale where 0 is no effect and 100 is complete control; for Morningglory plant response rating: 125 g ai/ha; for Plant response rating, Morningglory: 500 g ai/ha
In short: (§1)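 Visual 0–100 rating (100 = complete control) taken about 10 d post-treatment relative to untreated checks. Preemergence: directed soil spray on sown loam/sand pots. Postemergence: seedlings 2–10 cm, 1–2 leaf. Non-phytotoxic solvent formulation with surfactant.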

[2] = system: johnsongrass; assay: Test C preemergence; type: in vivo, Sorghum halepense; conditions: for Johnsongrass plant response rating: preemergence
In short: (§2)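 Whole-plant greenhouse test with surfactant-containing solvent formulation, applied preemergence to sown loam–sand pots or postemergence to 2–18 cm plants. Scored by eye 13 to 15 days on, 0–100 scale.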

[3] = system: lambsquarters; assay: Test C preemergence; type: in vivo, Chenopodium album; conditions: for Lambsquarters plant response rating: preemergence
In short: as §2

[4] = system: velvetleaf; assay: Test A preemergence; type: in vivo, Abutilon theophrasti; conditions: for Velvetleaf plant response rating (0 to 100 scale): 125 g ai/ha; for Velvetleaf plant response rating: 500 g ai/ha, 0 to 100 scale where 0 is no effect and 100 is complete control
In short: as §1

[5] = system: large (Lg) crabgrass; assay: Test C preemergence; type: in vivo, Digitaria sanguinalis; conditions: for Crabgrass, Large plant response rating: preemergence; for Plant response rating, Crabgrass, Large: Preemergence, scale 0 to 100, 0 no effect, 100 complete control
In short: as §2

[6] = system: ragweed; assay: Test C preemergence; type: in vivo, Ambrosia elatior; conditions: for Ragweed plant response rating: preemergence
In short: as §2

[7] = system: corn; assay: Test A postemergence; type: in vivo, Zea mays; conditions: 0 to 100 scale where 0 is no effect and 100 is complete control; for Corn plant response rating: 125 g ai/ha; for Plant response rating, Corn: 500 g ai/ha
In short: as §1

[8] = system: pigweed; assay: Test A postemergence; type: in vivo, Amaranthus retroflexus; conditions: 0 to 100 scale where 0 is no effect and 100 is complete control; for Pigweed plant response rating: 125 g ai/ha; for Plant response rating, Pigweed: 500 g ai/ha
In short: as §1

[9] = system: pigweed; assay: Test A preemergence; type: in vivo, Amaranthus retroflexus; conditions: for Pigweed plant response rating (0 to 100 scale): 125 g ai/ha; for Pigweed plant response rating: 500 g ai/ha, 0 to 100 scale where 0 is no effect and 100 is complete control
In short: as §1

[10] = system: large (Lg) crabgrass; assay: Test A postemergence; type: in vivo, Digitaria sanguinalis; conditions: 0 to 100 scale where 0 is no effect and 100 is complete control; for Crabgrass, Large plant response rating: 125 g ai/ha; for Plant response rating, Crabgrass, Large: 500 g ai/ha
In short: as §1

[11] = system: giant foxtail; assay: Test A postemergence; type: in vivo, Setaria faberii; conditions: 0 to 100 scale where 0 is no effect and 100 is complete control; for Foxtail, Giant plant response rating: 125 g ai/ha; for Plant response rating, Foxtail, Giant: 500 g ai/ha
In short: as §1

[12] = system: barnyardgrass; assay: Test A preemergence; type: in vivo, Echinochloa crus-galli; conditions: for Barnyardgrass plant response rating: 500 g ai/ha
In short: as §1

[13] = 16 g ai/ha, scale 0 to 100 (0 no effect, 100 complete control)
[14] = 62 g ai/ha, scale 0 (no effect) to 100 (complete control)
[15] = 125 g ai/ha, scale 0 (no effect) to 100 (complete control)
[16] = 0 to 100 scale where 0 is no effect and 100 is complete control
[17] = Preemergence, 62 g ai/ha, scale 0 to 100, 0 no effect, 100 complete control

SMILES | Morningglory plant response rating [1] | Plant response rating, Morningglory [1] | Johnsongrass plant response rating [2, 13] | Johnsongrass plant response rating [2, 15] | Lambsquarters plant response rating [3, 13] | Lambsquarters plant response rating [3, 15] | Velvetleaf plant response rating (0 to 100 scale) [4] | Velvetleaf plant response rating [4] | Crabgrass, Large plant response rating [5, 13] | Crabgrass, Large plant response rating [5, 15] | Ragweed plant response rating [6, 13] | Ragweed plant response rating [6, 15] | Corn plant response rating [7] | Plant response rating, Corn [7] | Pigweed plant response rating [8] | Plant response rating, Pigweed [8] | Pigweed plant response rating (0 to 100 scale) [9] | Pigweed plant response rating [9] | Crabgrass, Large plant response rating [10] | Plant response rating, Crabgrass, Large [10] | further results
Fc1cccc(Oc2ncc(Cl)cn2)c1-n1cc(I)cn1 [Compound 179] | 70 | 100 | 0 | 98 | 85 | 100 | 60 | 80 | 55 | 100 | 0 | 10 | 30 | 60 | 100 | 100 | 100 | 100 | 90 | 100 | Johnsongrass plant response rating [2, 14]: 65; Lambsquarters plant response rating [3, 14]: 100; Crabgrass, Large plant response rating [5, 14]: 98; Plant response rating, Crabgrass, Large ([5]; 31 g ai/ha): 90; Ragweed plant response rating [6, 14]: 0; Foxtail, Giant plant response rating [11]: 80; Plant response rating, Foxtail, Giant [11]: 90; Plant response rating, Barnyardgrass ([12]; 125 g ai/ha, 0 to 100 scale where 0 is no effect and 100 is complete control): 20; Barnyardgrass plant response rating [12, 16]: 100
CCOc1cnn(-c2ccccc2Oc2ncc(Cl)cn2)c1 [Compound 187] | 70 | 100 | 0 | 45 | 5 | 100 | 80 | 100 | 5 | 100 | 55 | 55 | 10 | 70 | 70 | 100 | 100 | 100 | 60 | 100 | Plant response rating, Johnsongrass [2, 17]: 30; Plant response rating, Lambsquarters [3, 17]: 98; Plant response rating, Crabgrass, Large ([5]; 62 g ai/ha): 100; Plant response rating, Ragweed [6, 17]: 45; Foxtail, Giant plant response rating [11]: 60; Plant response rating, Foxtail, Giant [11]: 90; Barnyardgrass plant response rating (0 to 100 scale, 0 is no effect, 100 is complete control) ([12]; 125 g ai/ha): 80; Barnyardgrass plant response rating [12, 16]: 100
